Data taken from patent US5298495A, “Partricin derivatives” (SPA Societa' Prodotti Antibiotici SpA, priority 1990, dated 1994).
Converted amounts (≈) assume the structure as drawn. Like-named read-outs stand apart in the source and are kept apart here.

Legend:
[1] = Solubility and reaction in water; assay type: physicochemical
[2] = test system: C. albicans 73; experiment: Microbiological activity on C. albicans (MIC); assay type: cell-based; conditions: Fluid Sab. Med, 36° C.; for MIC: Candida albicans, 73
Source text: (§1) MIC (ng/ml) Hemolytic con.(mcg/ml)
(§2) C. albicans 73 rat erytrocytes, […]

[3] = test system: rat erytrocytes; experiment: Hemolytic activity on rat erythrocytes; assay type: cell-based
Source text: as §1, §2

[4] = Acute toxicity in mice (DL50); assay type: in vivo; conditions: mouse, in vivo
[5] = cited from earlier work
[6] = test system: mice; experiment: Acute toxicity in mice (DL50); assay type: in vivo
[7] = 24 h, read-out: MIC C. albicans 73, 24 h
[8] = 48 h, read-out: MIC C. albicans 73, 48 h
[9] = rat erytrocytes, 4 h at 37° C., minimum
[10] = rat erytrocytes, 4 h at 37° C., total

Compound | MIC [2, 7] [mg/L] | MIC [2, 8] [mg/L] | Hemolytic con. min. (MHC) [3, 9] [µg/mL] | Hemolytic con. total (THC) [3, 10] [µg/mL] | LD50 ([4]; ip, read-out: DL50 mice i.p.) [mg/kg] | Hemolytic con. total (THC) [3] [µg/mL] | Hemolytic con. min. (MHC) ([3]; rat, 240 min) [µg/mL] | further results
CNc1ccc(C(=O)CC(O)CCC(C)C2OC(=O)CC(O)CC(=O)CC(O)CC(O)CC(O)CC(O)CC3(O)CC(O)C(C(=O)NCCN(C)C)C(CC(OC4OC(C)C(O)C(NC(=O)CN(C)C)C4O)C=CC=CC=CC=CC=CC=CC=CC2C)O3)cc1 (centres unmarked) [Example 5, N-DIMETHYLAMINOACETYL-PARTRICIN A 2-DIMETHYL-AMINOETHYLAMIDE DIASPARTATE] |  |  |  |  |  |  |  | solubility in water [1]: soluble in water; pH of aqueous solution (almost neutral reaction) ([1]; in water): 6
CNc1ccc(C(=O)CC(O)CCC(C)C2OC(=O)CC(O)CC(=O)CC(O)CC(O)CC(O)CC(O)CC3(O)CC(O)C(C(=O)N4CCN(C)CC4)C(CC(OC4OC(C)C(O)C(NC(=O)CN5CCN(C)CC5)C4O)C=CC=CC=CC=CC=CC=CC=CC2C)O3)cc1 (centres unmarked) [Partr. A, drawing 42, drawing 43] | 0.0075 (≈ 0.00556 µM) | 0.0212 (≈ 0.0157 µM) | 0.2 | 0.7 | 3.8 |  |  | 
CNc1ccc(C(=O)CC(O)CCC(C)C2OC(=O)CC(O)CC(=O)CC(O)CC(O)CC(O)CC(O)CC3(O)CC(O)C(C(=O)OC)C(CC(OC4OC(C)C(O)C(NC(=O)CN5CCN(CCO)CC5)C4O)C=CC=CC=CC=CC=CC=CC=CC2C)O3)cc1 (centres unmarked) [Partr. A, drawing 44, OCH3] | 0.015 (≈ 0.0114 µM) | 0.03 (≈ 0.0229 µM) |  |  | > 30 | 18 | 0.7 | 
CNc1ccc(C(=O)CC(O)CCC(C)C2OC(=O)CC(O)CC(=O)CC(O)CC(O)CC(O)CC(O)CC3(O)CC(O)C(C(=O)NCCN(C)C)C(CC(OC4OC(C)C(O)C(NC(=O)CN5CCN(CCO)CC5)C4O)C=CC=CC=CC=CC=CC=CC=CC2C)O3)cc1 (centres unmarked) [Partr. A, drawing 45, NHCH2 CH2N(CH3)2] | 0.0075 (≈ 0.00548 µM) | 0.0212 (≈ 0.0155 µM) |  |  | > 100 | 18 | 0.7 | 
CNc1ccc(C(=O)CC(O)CCC(C)C2OC(=O)CC(O)CC(=O)CC(O)CC(O)CC(O)CC(O)CC3(O)CC(O)C(C(=O)NCCc4ccccn4)C(CC(OC4OC(C)C(O)C(NC(=O)CCN5CCCCC5)C4O)C=CC=CC=CC=CC=CC=CC=CC2C)O3)cc1 (centres unmarked) [Partr. A, drawing 51, drawing 52] | 0.03 (≈ 0.0219 µM) | 0.06 (≈ 0.0438 µM) |  |  | > 300 | > 18 | 6 | LD50 ([4]; iv, read-out: DL50 mice i.v.): 109 mg/kg
mepartricin |  |  |  |  |  |  |  | solubility in water of mepartricin (words, background) [5]: water-insoluble
mepartricin [Partr., H, OCH3, reference compound] |  |  | 0.7 | 18 |  |  |  | MIC C. albicans 73, 24 h ([2]; 24 h): 0.0075 mg/L; MIC C. albicans 73, 48 h ([2]; 48 h): 0.03 mg/L; DL50 mice i.p. [6]: 15.8 mg/kg; DL50 mice i.v. ([6]; i.v.): 5.02 mg/kg
partricin [Partr., H, OH, reference compound] |  |  | < 0.2 | < 0.2 |  |  |  | MIC C. albicans 73, 24 h ([2]; 24 h): 0.03 mg/L; MIC C. albicans 73, 48 h ([2]; 48 h): 0.06 mg/L; DL50 mice i.p. [6]: 0.63 mg/kg
